Experimental data as given in patent publication US20260092179A1, “GENETICALLY MODIFIED HOST CELLS PRODUCING VIOLACEIN, ANALOGUES, AND DERIVATIVES THEREOF” (OCTARINE BIO APS, priority 2022, published 2026).

Columns and labels:
Assay type in all cases: physicochemical
[1] = Acidic pH stability of dyed fabrics (colour fastness, ΔE); conditions: pH 5 with HCl
Method: (§1) In order to assess the stability and colour fastness of violacein and violacein derivatives dyed onto fabrics, dyed fabrics were subjected to a number of conditions. Fabrics were dyed according to Example 18 and colour coordinates and colour change before and after exposure to a given condition were determined as described in Example 18. To measure temperature stability, fabrics were incubated in an oven set to 80° c. for 4 h. To measure stability under acid and alkaline conditions, fabrics were fully submerged in water solutions set to pH 8 with NaOH and pH 5 with HCl and incubated at room temperature for 30 minutes. Fabrics were then incubated at 37° c. for 4 h. To measure stability during laundering, fabrics were washed at 30° c. under the “mix” setting of a Siemens IQ300 washing machine, then dried in a Siemens IQ300 dryer until dry. To measure artificial light stability, fabrics were placed under an LED lamp at room temperature for 16 h. To measure UV light stability, fabrics were placed under a UV lamp at room temperature for 1 h.

[2] = Alkaline pH stability of dyed fabrics (colour fastness, ΔE); conditions: pH 8 with NaOH
Method: as §1

[3] = UV stability of dyed fabrics (colour fastness, ΔE); conditions: for ΔE: before vs after UV lamp, room temperature, 1 h
Method: as §1

[4] = Acrylic, before and after the stability test
[5] = Bleached cotton, before and after the stability test
[6] = Diacetate, before and after the stability test
[7] = Nylon 6,6, before and after the stability test
[8] = Polyester, before and after the stability test
[9] = Wool, before and after the stability test
[10] = Acrylic, after test (UV lamp, room temperature, 1 h)
[11] = Bleached cotton, after test (UV lamp, room temperature, 1 h)
[12] = Diacetate, after test (UV lamp, room temperature, 1 h)
[13] = Nylon 6,6, after test (UV lamp, room temperature, 1 h)
[14] = Polyester, after test (UV lamp, room temperature, 1 h)
[15] = Wool, after test (UV lamp, room temperature, 1 h)

O=C1N=C(c2c[nH]c3ccc(O)cc23)C=C1c1c[nH]c2ccccc12 [proviolacein]
L ([1]; Acrylic, After test): 58.2 | a ([1]; Acrylic, After test): −1.53 | b ([1]; Acrylic, After test): 3.12 | L ([1]; Acrylic, Before test): 59.15 | a ([1]; Acrylic, Before test): −0.61 | b ([1]; Acrylic, Before test): 1.45 | ΔE [1, 4]: 2.13 | L ([1]; Bleached cotton, After test): 65.48 | a ([1]; Bleached cotton, After test): 1.87 | b ([1]; Bleached cotton, After test): 2.2 | L ([1]; Bleached cotton, Before test): 62.48 | a ([1]; Bleached cotton, Before test): 1.73 | b ([1]; Bleached cotton, Before test): 2.27 | ΔE [1, 5]: 3.00 | L ([1]; Diacetate, After test): 59.6 | a ([1]; Diacetate, After test): 4.35 | b ([1]; Diacetate, After test): 7.87 | L ([1]; Diacetate, Before test): 60.94 | a ([1]; Diacetate, Before test): 4.79 | b ([1]; Diacetate, Before test): 4.9 | ΔE [1, 6]: 3.29 | L ([1]; Nylon 6,6, After test): 52.72 | a ([1]; Nylon 6,6, After test): −1.67 | b ([1]; Nylon 6,6, After test): −3.52 | L ([1]; Nylon 6,6, Before test): 50.84 | a ([1]; Nylon 6,6, Before test): 0.04 | b ([1]; Nylon 6,6, Before test): −4.68 | ΔE [1, 7]: 2.79 | L ([1]; Polyester, After test): 64.14 | a ([1]; Polyester, After test): −1.28 | b ([1]; Polyester, After test): 2.92 | L ([1]; Polyester, Before test): 64.55 | a ([1]; Polyester, Before test): −1.43 | b ([1]; Polyester, Before test): 1.3 | ΔE [1, 8]: 1.68 | L ([1]; Wool, After test): 66.56 | a ([1]; Wool, After test): −0.93 | b ([1]; Wool, After test): 5.56 | L ([1]; Wool, Before test): 65.49 | a ([1]; Wool, Before test): −1.55 | b ([1]; Wool, Before test): 5.81 | ΔE [1, 9]: 1.26 | L ([2]; Acrylic, After test): 58.76 | a ([2]; Acrylic, After test): −2.16 | b ([2]; Acrylic, After test): 3.85 | L ([2]; Acrylic, Before test): 57.87 | a ([2]; Acrylic, Before test): −0.46 | b ([2]; Acrylic, Before test): 1.91 | ΔE [2, 4]: 2.73 | L ([2]; Bleached cotton, After test): 64.37 | a ([2]; Bleached cotton, After test): 2.22 | b ([2]; Bleached cotton, After test): 2.08 | L ([2]; Bleached cotton, Before test): 63.78 | a ([2]; Bleached cotton, Before test): 2.31 | b ([2]; Bleached cotton, Before test): 1.4 | ΔE [2, 5]: 0.90 | L ([2]; Diacetate, After test): 61.54 | a ([2]; Diacetate, After test): 3.25 | b ([2]; Diacetate, After test): 6.78 | L ([2]; Diacetate, Before test): 60.55 | a ([2]; Diacetate, Before test): 3.12 | b ([2]; Diacetate, Before test): 6.29 | ΔE [2, 6]: 1.11 | L ([2]; Nylon 6,6, After test): 50.89 | a ([2]; Nylon 6,6, After test): −1.8 | b ([2]; Nylon 6,6, After test): −3.04 | L ([2]; Nylon 6,6, Before test): 52.98 | a ([2]; Nylon 6,6, Before test): −2.5 | b ([2]; Nylon 6,6, Before test): −3.65 | ΔE [2, 7]: 2.29 | L ([2]; Polyester, After test): 64.69 | a ([2]; Polyester, After test): −1.03 | b ([2]; Polyester, After test): −0.34 | L ([2]; Polyester, Before test): 64.55 | a ([2]; Polyester, Before test): −2.15 | b ([2]; Polyester, Before test): 1.47 | ΔE [2, 8]: 2.13 | L ([2]; Wool, After test): 65.28 | a ([2]; Wool, After test): −1.97 | b ([2]; Wool, After test): 5.42 | L ([2]; Wool, Before test): 65.56 | a ([2]; Wool, Before test): −2.33 | b ([2]; Wool, Before test): 7.35 | ΔE [2, 9]: 1.98 | L [3, 10]: 57.07 | a [3, 10]: 0.02 | b [3, 10]: 1.94 | L ([3]; Acrylic, before test): 57.31 | a ([3]; Acrylic, before test): −0.99 | b ([3]; Acrylic, before test): 2.73 | ΔE ([3]; Acrylic): 1.30 | L [3, 11]: 64.92 | a [3, 11]: 1.27 | b [3, 11]: 3.29 | L ([3]; Bleached cotton, before test): 64.65 | a ([3]; Bleached cotton, before test): 0.4 | b ([3]; Bleached cotton, before test): 2.43 | ΔE ([3]; Bleached cotton): 1.25 | L [3, 12]: 61.92 | a [3, 12]: 3.89 | b [3, 12]: 6.22 | L ([3]; Diacetate, before test): 61.25 | a ([3]; Diacetate, before test): 3.87 | b ([3]; Diacetate, before test): 4.46 | ΔE ([3]; Diacetate): 1.88 | L [3, 13]: 57.07 | a [3, 13]: 0.02 | b [3, 13]: 1.94 | L ([3]; Nylon 6,6, before test): 57.31 | a ([3]; Nylon 6,6, before test): −0.99 | b ([3]; Nylon 6,6, before test): 2.73 | ΔE ([3]; Nylon 6,6): 1.30 | L [3, 14]: 65.53 | a [3, 14]: −1.02 | b [3, 14]: 0.99 | L ([3]; Polyester, before test): 64.26 | a ([3]; Polyester, before test): −2.11 | b ([3]; Polyester, before test): 1.21 | ΔE ([3]; Polyester): 1.69 | L [3, 15]: 62.87 | a [3, 15]: −0.07 | b [3, 15]: 5.48 | L ([3]; Wool, before test): 62.43 | a ([3]; Wool, before test): −0.15 | b ([3]; Wool, before test): 5.23 | ΔE ([3]; Wool): 0.51
